Results as given in patent US20220132846A1, “1-PYRIDYL-PYRAZOLYL AMIDE COMPOUNDS AND PREPARATION AND USES THEREOF” (HUNAN RESEARCH INSTITUTE OF CHEMICAL INDUSTRY CO., LTD., priority 2019, published 2022).

What was measured:
[1] = test system: Armyworm (Mythimna separata (Walker)); assay: Test against armyworm, Potter tower method; format: in vivo; details: for mortality at 50 µg/mL / mortality at 500 µg/mL / mortality at 12.5 µg/mL: Mythimna separata, third-instar larvae, after 72 hours, read-out: Activity (mortality) level against armyworm; for mortality at 50 µg/mL: 50 mg/L; for mortality at 500 µg/mL: 500 mg/L; for mortality at 12.5 µg/mL: 12.5 mg/L
Method: Potter tower method: the test compound was dissolved in an appropriate solvent such as N,N-dimethylformamide, and then diluted with 0.2% aqueous solution of Tween 80 to the desired concentration, Those without the test compounds were set as blank controls. The fresh and tender corn leaves were taken and cut into fragments of basically the same size, then put into a Petri dish (diameter 90 mm) padded with filter paper in advance. Ten third-instar larvae of test insects were transferred into the dish and then placed under the Potter spray tower for being sprayed, each concentration treatment was sprayed at the amount of 1 mL and replicated 3 times. The dish was covered and then placed in a chamber for culture and observed regularly, after 72 hours, the dead insects was investigated and recorded and the mean mortality was calculated. […]

[2] = test system: Aphis fabae; assay: Test against aphid, leaf dip method (Aphis fabae); format: in vivo; details: foliar; for mortality at 12.5 µg/mL: 12.5 mg/L; for mortality at 12.5 µg/mL / mortality at 50 µg/mL / mortality at 200 µg/mL / mortality at 500 µg/mL: after 24 hours, read-out: Activity (mortality) level against Aphis fabae; for mortality at 50 µg/mL: 50 mg/L; for mortality at 200 µg/mL: 200 mg/L; for mortality at 500 µg/mL: 500 mg/L; for LC50: further test, read-out: LC50 against Aphis fabae
Method: For evaluating the activity of the compounds of this invention against Homoptera pests, Aphis fabae, wheat aphids, etc. were selected as the test insects, and the activity of the compounds of this invention against aphids was measured by leaf dip method indoors.
Leaf dip method (Aphis fabae): the test compound was dissolved in an appropriate solvent such as N,N-dimethylformamide, and then diluted with 0.2% aqueous solution of Tween 80 to the desired concentration, Those without the test compounds were set as blank controls, the treatments were replicated 3 times. Horsebean seedlings with no less than twenty 3-day-old Aphis fabae per plant was cut from the stem, 5 horsebean seedlings with the insects were dipped in the test solution for 5 seconds, then inserted into a sponge filled with water after sucked dry using filter paper, then covered with a glass tube and placed in a chamber for culture. After 24 hours, the number of living and dead insects were investigated and the results were averaged. […]

Structure (SMILES) | mortality at 50 µg/mL [1] | mortality at 500 µg/mL [1] | mortality at 12.5 µg/mL [2] | mortality at 50 µg/mL [2] | mortality at 200 µg/mL [2] | mortality at 500 µg/mL [2] | mortality at 12.5 µg/mL [1] | LC50 [2] | Activity against armyworm, further screening (in words) ([1]; compared with chlorantraniliprole (D1))
CCCNC(=O)c1cc(Cl)cc(Br)c1N(C)C(=O)c1cc(Br)nn1-c1ncccc1Cl [Compound 27, N-[2-bromo-4-chloro-6-[(propylamino)carbonyl]phenyl]-N-methyl-1-(3-chloro-2-pyridinyl)-3-bromo-1H-pyrazole-5-carboxamide] | 90 to 100% | 90 to 100% | 90 to 100% | 90 to 100% | 90 to 100% | 90 to 100% | – | – | –
CC(C)NC(=O)c1cc(Cl)cc(Br)c1N(C)C(=O)c1ccnn1-c1ncccc1Cl [Compound 28, N-[2-bromo-4-chloro-6-[(isopropylamino)carbonyl]phenyl]-N-methyl-1-(3-chloro-2-pyridinyl)-1H-pyrazole-5-carboxamide] | 90 to 100% | 90 to 100% | – | – | 90 to 100% | 90 to 100% | 90 to 100% | – | –
CN(C(=O)c1cc(Br)nn1-c1ncccc1Cl)c1c(Br)cc(Cl)cc1C(=O)NC1CC1 [Compound 29, N-[2-bromo-4-chloro-6-[(cyclopropylamino)carbonyl]phenyl]-N-methyl-1-(3-chloro-2-pyridinyl)-3-bromo-1H-pyrazole-5-carboxamide] | 90 to 100% | 90 to 100% | – | – | 90 to 100% | 90 to 100% | 90 to 100% | – | –
CCCCNC(=O)c1cc(Cl)cc(Br)c1N(C)C(=O)c1ccnn1-c1ncccc1Cl [Compound 30, N-[2-bromo-4-chloro-6-[(butylamino)carbonyl]phenyl]-N-methyl-1-(3-chloro-2-pyridinyl)-1H-pyrazole-5-carboxamide] | – | 90 to 100% | – | – | 90 to 100% | 90 to 100% | – | – | –
CN(C)C(=O)c1cc(Cl)cc(Br)c1N(C)C(=O)c1cc(Br)nn1-c1ncccc1Cl [Compound 31, N-[2-bromo-4-chloro-6-[(dimethylamino)carbonyl]phenyl]-N-methyl-1-(3-chloro-2-pyridinyl)-3-bromo-1H-pyrazole-5-carboxamide] | – | 90 to 100% | 90 to 100% | 90 to 100% | 90 to 100% | 90 to 100% | – | < 1 µg/mL | –
CCCN(C)C(=O)c1cc(Cl)cc(Br)c1N(C)C(=O)c1cc(Br)nn1-c1ncccc1Cl [Compound 33, N-[2-bromo-4-chloro-6-[(methyl(propyl)amino)carbonyl]phenyl]-N-methyl-1-(3-chloro-2-pyridinyl)-3-bromo-1H-pyrazole-5-carboxamide] | 90 to 100% | 90 to 100% | 90 to 100% | 90 to 100% | 90 to 100% | 90 to 100% | – | – | –
CC(C)N(C)C(=O)c1cc(Cl)cc(Br)c1N(C)C(=O)c1cc(Br)nn1-c1ncccc1Cl [Compound 34, N-[2-bromo-4-chloro-6-[(methyl(isopropyl)amino)carbonyl]phenyl]-N-methyl-1-(3-chloro-2-pyridinyl)-3-bromo-1H-pyrazole-5-carboxamide] | 90 to 100% | 90 to 100% | 90 to 100% | 90 to 100% | 90 to 100% | 90 to 100% | – | < 1 µg/mL | –
CN(C(=O)c1cc(Br)nn1-c1ncccc1Cl)c1c(Br)cc(Cl)cc1C(=O)N(C)C1CC1 [Compound 35, N-[2-bromo-4-chloro-6-[(methyl(cyclopropyl)amino)carbonyl]phenyl]-N-methyl-1-(3-chloro-2-pyridinyl)-3-bromo-1H-pyrazole-5-carboxamide] | 90 to 100% | 90 to 100% | 90 to 100% | 90 to 100% | 90 to 100% | 90 to 100% | – | – | –
CN(C(=O)c1cc(Br)nn1-c1ncccc1Cl)c1c(Br)cc(Cl)cc1C(=O)N(C)C(C)(C)C [Compound 36, N-[2-bromo-4-chloro-6-[(methyl(tert-butyl)amino)carbonyl]phenyl]-N-methyl-1-(3-chloro-2-pyridinyl)-3-bromo-1H-pyrazole-5-carboxamide] | 90 to 100% | 90 to 100% | – | 90 to 100% | 90 to 100% | 90 to 100% | – | – | –
CCN(CC)C(=O)c1cc(Cl)cc(Br)c1N(C)C(=O)c1cc(Br)nn1-c1ncccc1Cl [Compound 37, N-[2-bromo-4-chloro-6-[(diethylamino)carbonyl]phenyl]-N-methyl-1-(3-chloro-2-pyridinyl)-3-bromo-1H-pyrazole-5-carboxamide] | 90 to 100% | 90 to 100% | 90 to 100% | 90 to 100% | 90 to 100% | 90 to 100% | 90 to 100% | – | –
CCN(C(=O)c1cc(Br)nn1-c1ncccc1Cl)c1c(Br)cc(Cl)cc1C(=O)N(C)C [Compound 38, N-[2-bromo-4-chloro-6-[(dimethylamino)carbonyl]phenyl]-N-ethyl-1-(3-chloro-2-pyridinyl)-3-bromo-1H-pyrazole-5-carboxamide] | 90 to 100% | 90 to 100% | 90 to 100% | 90 to 100% | 90 to 100% | 90 to 100% | – | – | –
CCN(C)C(=O)c1cc(Cl)cc(Br)c1N(CC)C(=O)c1cc(Br)nn1-c1ncccc1Cl [Compound 39, N-[2-bromo-4-chloro-6-[(methyl(ethyl)amino)carbonyl]phenyl]-N-ethyl-1-(3-chloro-2-pyridinyl)-3-bromo-1H-pyrazole-5-carboxamide] | 90 to 100% | 90 to 100% | 90 to 100% | 90 to 100% | 90 to 100% | 90 to 100% | – | – | –
CCN(CC)C(=O)c1cc(Cl)cc(Br)c1N(CC)C(=O)c1cc(Br)nn1-c1ncccc1Cl [Compound 40, N-[2-bromo-4-chloro-6-[(diethylamino)carbonyl]phenyl]-N-ethyl-1-(3-chloro-2-pyridinyl)-3-bromo-1H-pyrazole-5-carboxamide] | 90 to 100% | 90 to 100% | 90 to 100% | 90 to 100% | 90 to 100% | 90 to 100% | 90 to 100% | – | excellent activity
CCCN(C(=O)c1cc(Br)nn1-c1ncccc1Cl)c1c(Br)cc(Cl)cc1C(=O)N(C)C [Compound 41, N-[2-bromo-4-chloro-6-[(dimethylamino)carbonyl]phenyl]-N-propyl-1-(3-chloro-2-pyridinyl)-3-bromo-1H-pyrazole-5-carboxamide] | 90 to 100% | 90 to 100% | 90 to 100% | 90 to 100% | 90 to 100% | 90 to 100% | – | – | –
CNC(=O)c1cc(Cl)cc(C)c1N(C)C(=O)c1cc(Br)nn1-c1ncccc1Cl [Compound 42, N-[2-methyl-4-chloro-6-[(methylamino)carbonyl]phenyl]-N-methyl-1-(3-chloro-2-pyridinyl)-3-bromo-1H-pyrazole-5-carboxamide] | 90 to 100% | 90 to 100% | 90 to 100% | 90 to 100% | 90 to 100% | 90 to 100% | 90 to 100% | – | –
CCNC(=O)c1cc(Cl)cc(C)c1N(C)C(=O)c1cc(Br)nn1-c1ncccc1Cl [Compound 43, N-[2-methyl-4-chloro-6-[(ethylamino)carbonyl]phenyl]-N-methyl-1-(3-chloro-2-pyridinyl)-3-bromo-1H-pyrazole-5-carboxamide] | 90 to 100% | 90 to 100% | – | – | – | 90 to 100% | – | – | –
Cc1cc(Cl)cc(C(=O)N(C)C)c1N(C)C(=O)c1cc(Br)nn1-c1ncccc1Cl [Compound 44, N-[2-methyl-4-chloro-6-[(dimethylamino)carbonyl]phenyl]-N-methyl-1-(3-chloro-2-pyridinyl)-3-bromo-1H-pyrazole-5-carboxamide] | 90 to 100% | 90 to 100% | – | – | – | 90 to 100% | – | – | –
CCN(C)C(=O)c1cc(Cl)cc(C)c1N(C)C(=O)c1cc(Br)nn1-c1ncccc1Cl [Compound 45, N-[2-methyl-4-chloro-6-[(methyl(ethyl)amino)carbonyl]phenyl]-N-methyl-1-(3-chloro-2-pyridinyl)-3-bromo-1H-pyrazole-5-carboxamide] | – | 90 to 100% | – | – | – | 90 to 100% | – | – | –
